Experiment: xn = mol fraction of the nth substance listed
Conditions: 101 kPa, Liquid; for viscosity: Capillary tube (Ostwald / Ubbelohde) method; for mass density: Vibrating tube method

NC1CCCCC1 [cyclohexylamine] + CCCCCCCO
Conditions | mass density, 293.15 K [kg/m3] | mass density, 298.15 K [kg/m3] | viscosity, 293.15 K [mPa·s] | viscosity, 298.15 K [mPa·s] | viscosity, 303.15 K [mPa·s]
x2 = 0.1018 | 863.57 | 859.27 | 2.454 | 2.178 | 1.931
x2 = 0.1499 | 861.92 | 857.64 | 2.635 | 2.338 | 2.059
x2 = 0.1996 | 860.22 | 856.01 | 2.838 | 2.502 | 2.204
x2 = 0.2982 | 856.82 | 852.71 | 3.308 | 2.892 | 2.531
x2 = 0.3979 | 853.09 | 849.06 | 3.844 | 3.334 | 2.895
x2 = 0.4465 | 851.2 | – | 4.118 | – | 3.079
x2 = 0.4565 | – | 847.21 | – | 3.558 | –
x2 = 0.4931 | 849.3 | 845.34 | 4.381 | 3.776 | 3.258
x2 = 0.5432 | 847.06 | 843.14 | 4.66 | 4.007 | 3.443
x2 = 0.6008 | 844.43 | 840.57 | 4.98 | 4.267 | –
x2 = 0.6598 | 841.57 | 837.76 | 5.267 | 4.478 | –
x2 = 0.7019 | 839.35 | 835.59 | 5.475 | 4.682 | –
x2 = 0.7479 | 836.94 | 833.22 | 5.687 | 4.828 | –
x2 = 0.7967 | 834.16 | 830.49 | 5.916 | 5.057 | –
x2 = 0.8466 | 831.39 | 827.78 | 6.158 | 5.232 | –
x2 = 0.8935 | 828.7 | 825.11 | 6.421 | 5.43 | –
x2 = 0.9432 | 825.75 | 822.21 | 6.717 | 5.673 | –
